# Entries after “also recorded” stand apart in the source; their conditions may differ.
# Assays:
# FLAG-tagged FOXO1 = assay: 2D Western blot of FLAG-tagged FOXO1 in HepG2 cells; assay type: cell-based; conditions: HepG2 transfected with FLAG-tagged FOXO1, 500 μM glucosamine, 48 hours
# Method: HepG2 cells were transiently transfected with an expression vector that expressed FOXO1 with a Myc-DDK tag (Cat. No. RC200477, Origene, Rockville, Md.). Transfection reagent was purchased from Life Technologies (Lipofectamine 2000, Cat. No. 11668-019, Grand Island, N.Y. 14702). HepG2 cells were treated for 48 hours with 500 μM glucosamine Total HepG2 cell extracts were collected and evaluated with 1D and 2D Western blots using antibodies against FLAG tag.
# 2D Western blots of HepG2 total protein extracts were performed by Kendrick Laboratories (Madison, Wis.). Total protein extracts was diluted with 100 ul of SDS Boiling Buffer and microdialyzed overnight using 6-8,000 MWCO membrane at 4° C. Samples were then lyophilized and redissolved to 3.33 mg/ml in diluted SDS boiling Buffer:Urea Sample Buffer before loading. A total of 500 μg of total protein extracts or 150 μl was loaded for isoeletric focusing. Carrier ampholine method of isoelectric focusing was carried out in a glass tube of inner diameter 3.3 mm using 2.0% pH 4-8 mix Servalytes (Serva, Heidelberg, Germany) for 20,000 volt-hrs. After equilibration for 10 minutes in 10% glycerol, 50 mM dithiothreitol, 2.3% SDS and 0.0625 M tris, pH 6.8, each tube gel was sealed to the top of a stacking gel that overlaid a 10% acrylamide slab gel. SDS slab gel electrophoresis was carried out for about 5 hours at 25 mA/gel. […]
# FOXO1 = assay: cIEF immunoassay of FOXO1 pI distribution in HepG2 cells; assay type: cell-based; conditions: 48 hours
# Method: A NanoPro 1000 cIEF system (Protein Simple, Santa Clara, Calif., USA) was employed for profiling protein PTM. Samples of 400 nl volume were separated by isoelectric focusing using the 96-capillary system, followed by immobilization of the proteins onto the inner capillary walls. Primary and secondary antibodies (Tables 2 and FIG. 6) were introduced into the capillaries, followed by chemiluminescence detection reagents. The incubation times were 110 and 55 min for primary and secondary antibodies, respectively. The separation time was 50 minutes at […]. All samples were loaded in triplicate into capillaries to evaluate the consistency of capillary-to-capillary measurement. Each experiment was performed in triplicate to ensure repeatability. A minimum of nine cIEF measurements were done for each protein per animal group. […]
# HepG2 cells were maintained in DMEM media with 25 mM glucose and 10% fetal calf serum. […] Total HepG2 cell extracts were collected and evaluated with 1D Western blots using antibodies against O-GlcNAc.
# HepG2 cells were transiently transfected with an expression vector that expressed FOXO1 with a Myc-DDK tag (Cat. No. RC200477, Origene, Rockville, Md.). […] HepG2 cells were treated for 48 hours with 500 μM glucosamine Total HepG2 cell extracts were collected and evaluated with 1D and 2D Western blots using antibodies against FLAG tag. […]
# ChREBP = assay: cIEF immunoassay PTM profile of ChREBP in liver tissues; assay type: in vivo, mouse; conditions: C57BL/6J+F liver vs control C57BL/6J
# Method: (§1) C57BL/6 J and UPase1-TG mice were fed a lean diet that provides 4.6 kcal/g (22% by calorific value from fat, 23% from protein, and 55% from carbohydrates; PicoLab Mouse Diet, Catalog No 5058, LabDiet, Brentwood, Mo., USA). C57BL/6 J+LD mice were fed a lean diet for 16 weeks. C57BL/6 J+F mice were fed a lean diet supplemented with fenofibrate (400 mg/kg per day) for 5 days. C57BL/6 J+HFD mice were fed a high-fat diet that provides 5.24 kcal/g (60% from fat, 20% from protein, and 20% from carbohydrates) for 16 weeks (Catalog No D12492, Research Diets Inc, New Brunswick, N.J., USA). C57BL/6 J mice served as a control for C57BL/6 J+LD, UPase1-TG, and C57BL/6 J+F mice. On the other hand, C57BL/6 J+LD mice served as a control for C57BL/6 J+HFD mice. All animal studies were performed in conformity with the Public Health Service Policy on Humane Care and Use of Laboratory Animals and with the approval of the Animal Care and Use Committees at Nevada Cancer Institute, Desert Research Institute, and Touro University Nevada.
# (§2) Approximately 500 mg of frozen liver tissues was added to 300 μl of RIPA buffer (Cat. No. 8990, Life Technologies, Grand Island, N.Y. 14702) containing proteinase and phosphatase inhibitors and homogenized twice at 6 seconds duration. […]
# LCAT = assay: cIEF immunoassay PTM profile of LCAT in liver tissues; assay type: in vivo, mouse
# Method: as §1, §2
# Akt = assay: cIEF immunoassay phosphorylation profile of Akt in liver tissues; assay type: in vivo, mouse; conditions: C57BL/6J+F liver vs C57BL/6J
# Method: as §1, §2
# PFK1 = assay: cIEF immunoassay PTM profile of PFK1 in liver tissues; assay type: in vivo, mouse; conditions: C57BL/6J+F liver vs control C57BL/6J
# Method: as §1, §2
# ERK1/2 = assay: cIEF immunoassay phosphorylation profile of ERK1/2 in liver tissues; assay type: in vivo, mouse; conditions: C57BL/6J+F liver vs control C57BL/6J
# Method: as §1, §2
# HMGCS2 = assay: cIEF immunoassay PTM profile of HMGCS2 in liver tissues; assay type: in vivo, mouse; conditions: C57BL/6J+F liver vs C57BL/6J
# Method: as §1, §2
# [1] = system: liver tissues (hepatic steatosis); assay: Assessment of hepatic steatosis with CARS microscopy and Oil Red O histology; assay type: in vivo, mouse; conditions: C57BL/6J+F mice, fenofibrate diet (400 mg/kg per day) for 5 days
# Method: as §1
# LCAD = assay: cIEF immunoassay PTM profile of LCAD in liver tissues; assay type: in vivo, mouse; conditions: C57BL/6J+F liver vs control C57BL/6J
# Method: as §1, §2
# HepG2 cells = assay: 1D Western blot of HepG2 total cell extracts with antibodies against O-GlcNAc; assay type: cell-based; conditions: HepG2, 100 μM PUGNAc, 48 hours
# Method: HepG2 cells were maintained in DMEM media with 25 mM glucose and 10% fetal calf serum. HepG2 cells were treated for 48 hours with 100 μM PUGNAc (Cat. No. A7229, Sigma, St. Louis, Mo.). Total HepG2 cell extracts were collected and evaluated with 1D Western blots using antibodies against O-GlcNAc.
# HepG2 cells were first lysed with M-Per lysis buffer (Pierce, Rockford, Ill., USA) in the presence of protease and phosphatase inhibitors. For cIEF immunoassays, total cell lysates were prepared in Premix G2 pH 5-8 separation gradient containing pI standards (ProteinSimple).
# HepG2 total cell extracts were analyzed on 10% SDS-polyacrylamide gel. Secondary antibodies were purchased from LI-COR (Lincoln, Nebr., Cat. No. 92668070). Immunoblots were detected with the LI-COR's Odyssey CLx imaging system.
compound,measurement,setting,value
N[C@H]1C(O)O[C@H](CO)[C@@H](O)[C@@H]1O (stereo partly shown) [glucosamine],FLAG-tagged FOXO1 pI on 2D Western blot,FLAG-tagged FOXO1,shift to FLAG-tagged FOXO1 toward basic pI values; also recorded: additional gel spot at a basic pI value
same,"FOXO1 peaks in cIEF, pI","FOXO1; HepG2, 500 μM glucosamine",> 7.5 pI
CC(C)OC(=O)C(C)(C)Oc1ccc(C(=O)c2ccc(Cl)cc2)cc1 [fenofibrate],reduction of phosphorylated ChREBP isoforms,ChREBP,60%
same,LCAT observed pI value,LCAT; C57BL/6J+F liver,5.8 pI
same,"glycosylated LCAT isoforms, folds lower",LCAT; C57BL/6J+F liver vs C57BL/6J,~10 folds
same,"Akt phosphorylation level, lower compared to control",Akt,approximately 30%
same,"reduction of phosphorylated PFK-1 isoform, areas under the curve",PFK1,~10 folds
same,"increase of ERK1/2 phosphorylated isoforms, areas under the curve",ERK1/2,~30%
same,"PTM increase for HMGCS2, areas under the curve from pI 5.7 to 6.4",HMGCS2,2 folds
same,Fatty liver classification,[1],severe microvesicular steatosis
same,"glycosylated LCAD isoform, folds higher, areas under the curve",LCAD,2 folds
CC(=O)N[C@H]1/C(=N/OC(=O)Nc2ccccc2)O[C@H](CO)[C@@H](O)[C@@H]1O [PUGNAc],overall protein O-linked glycosylation profile of HepG2 total cell extract,HepG2 cells,increased
same,"new FOXO1 peak, pI","FOXO1; HepG2, 100 μM PUGNAc",8.25 pI

# Source: patent publication US10591478B2, “Methods for molecular classification of fatty liver by high-throughput protein post-translational modifications” (ROSEMAN UNIVERSITY OF HEALTH SCIENCES, priority 2015, dated 2020)
